# Test results published in US9688699B2, “3-(pyrimidine-2-yl)imidazo[1,2-a]pyridines” (Bayer Pharma Aktiengesellschaft, priority 2014, dated 2017).
# Counter-ions that a name gives are not always drawn.
# Key:
# [1] = target: T1, recombinant guanylate cyclase reporter cell line (Rattus norvegicus, UniProt P19686+P20595); experiment: Effect on a recombinant guanylate cyclase reporter cell line (B-2); format: cell-based; conditions: MEC = minimum effective concentration, in some cases mean values for individual determinations
# T1 construct: expressed in transfected cells
# T1 sequence (P19686 1-690): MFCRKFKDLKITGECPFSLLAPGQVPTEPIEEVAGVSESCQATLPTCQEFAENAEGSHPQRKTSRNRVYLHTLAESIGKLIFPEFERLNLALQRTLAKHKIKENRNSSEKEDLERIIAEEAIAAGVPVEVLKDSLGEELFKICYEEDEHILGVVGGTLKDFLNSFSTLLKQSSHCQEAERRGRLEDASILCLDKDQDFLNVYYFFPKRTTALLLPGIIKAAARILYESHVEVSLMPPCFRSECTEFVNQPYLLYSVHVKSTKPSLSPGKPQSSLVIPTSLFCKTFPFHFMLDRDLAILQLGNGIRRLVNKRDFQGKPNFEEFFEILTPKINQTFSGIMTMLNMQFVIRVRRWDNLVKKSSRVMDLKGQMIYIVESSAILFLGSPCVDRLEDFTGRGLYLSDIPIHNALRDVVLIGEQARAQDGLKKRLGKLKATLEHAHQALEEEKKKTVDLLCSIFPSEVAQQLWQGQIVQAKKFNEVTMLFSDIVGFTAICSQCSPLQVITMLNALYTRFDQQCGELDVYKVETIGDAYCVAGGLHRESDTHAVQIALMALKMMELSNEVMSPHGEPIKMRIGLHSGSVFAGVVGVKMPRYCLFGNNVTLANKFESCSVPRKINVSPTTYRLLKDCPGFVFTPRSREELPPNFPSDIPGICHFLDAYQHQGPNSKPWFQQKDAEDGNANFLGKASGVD
# T1 sequence (P20595 1-619): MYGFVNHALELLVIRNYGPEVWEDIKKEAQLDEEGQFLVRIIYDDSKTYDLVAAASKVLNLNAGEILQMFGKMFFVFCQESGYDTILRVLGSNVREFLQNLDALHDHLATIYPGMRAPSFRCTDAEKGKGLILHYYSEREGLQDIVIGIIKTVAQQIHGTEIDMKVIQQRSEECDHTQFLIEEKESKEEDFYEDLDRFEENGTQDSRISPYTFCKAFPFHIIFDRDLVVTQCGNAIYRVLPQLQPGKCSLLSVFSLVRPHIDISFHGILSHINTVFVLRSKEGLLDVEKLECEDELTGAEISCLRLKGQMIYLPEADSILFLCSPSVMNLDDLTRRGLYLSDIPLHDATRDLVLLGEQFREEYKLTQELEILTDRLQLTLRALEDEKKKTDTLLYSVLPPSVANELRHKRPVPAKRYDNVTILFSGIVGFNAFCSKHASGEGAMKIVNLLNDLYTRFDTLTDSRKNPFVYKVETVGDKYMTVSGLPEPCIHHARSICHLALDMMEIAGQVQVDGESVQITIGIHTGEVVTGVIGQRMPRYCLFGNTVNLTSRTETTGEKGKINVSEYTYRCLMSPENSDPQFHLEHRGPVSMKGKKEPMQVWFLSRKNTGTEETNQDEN
# Method: B-2. Effect on a Recombinant Guanylate Cyclase Reporter Cell Line
# The cellular activity of the compounds according to the invention is determined using a recombinant guanylate cyclase reporter cell line, as described in F. Wunder et al., Anal. Biochem. 339, 104-112 (2005).
# Representative MEC values (MEC=minimum effective concentration) for the compounds of the invention are shown in Table 1 below (in some cases as mean values for individual determinations): […]
# [2] = target: T2, human phosphodiesterase 5 (PDE 5) (Homo sapiens, UniProt O76074); experiment: Inhibition of human phosphodiesterase 5 (PDE 5) (B-3); format: biochemical; conditions: PDE 5 preparation from human platelets; [8-3H] cGMP substrate, SPA; in some cases means of individual determinations
# T2 construct: PDE 5 preparations are obtained from human platelets by disruption; from tissue; host or cells: human platelets (Mono Q ion exchange fractions with PDE 5 activity)
# Method: B-3. Inhibition of Human Phosphodiesterase 5 (PDE 5)
# PDE 5 preparations are obtained from human platelets by disruption (Microfluidizer®, 800 bar, 3 passes), followed by centrifugation (75 000 g, 60 min, 4° C.) and ion exchange chromatography of the supernatant on a Mono Q 10/10 column (linear sodium chloride gradient, elution with a 0.2-0.3M solution of sodium chloride in buffer (20 mM Hepes pH 7.2, 2 mM magnesium chloride). Fractions having PDE 5 activity are combined (PDE 5 preparation) and stored at −80° C.
# To determine their in vitro action on human PDE 5, the test substances are dissolved in 100% DMSO and serially diluted. Typically, dilution series (1:3) from 200 μM to 0.091 μM are prepared (resulting final concentrations in the test: 4 μM to 0.0018 μM). In each case 2 μl of the diluted substance solutions are placed into the wells of microtitre plates (Isoplate-96/200 W; Perkin Elmer). Subsequently, 50 μl of a dilution of the above-described PDE 5 preparation are added. The dilution of the PDE 5 preparation is chosen such that during the later incubation less than 70% of the substrate are converted (typical dilution: 1:100; dilution buffer: 50 mM tris/hydrochloric acid pH 7.5, 8.3 mM magnesium chloride, 1.7 mM EDTA, 0.2% BSA). The substrate, [8-^3H] cyclic guanosine-3′,5′-monophosphate (1 μCi/μl; Perkin Elmer), is diluted 1:2000 with assay buffer (50 mM tris/hydrochloric acid pH 7.5, 8.3 mM magnesium chloride, 1.7 mM EDTA) to a concentration of 0.0005 μCi/μl. By addition of 50 μl (0.025 μCi) of the diluted substrate, the enzyme reaction is finally started. The test mixtures are incubated at room temperature for 60 min and the reaction is stopped by adding 25 μl of a suspension of 18 mg/ml yttrium scintillation proximity beads in water (phosphodiesterase beads for SPA assays, RPNQ 0150, Perkin Elmer). The microtitre plates are sealed with a film and left to stand at room temperature for 60 min. Subsequently, the plates are analysed for 30 s per well in a Microbeta scintillation counter (Perkin Elmer). IC50 values are determined using the graphic plot of the substance concentration against percentage PDE 5 inhibition.
SMILES,MEC [1] [µM],IC50 [2] [nM]
"Cc1nc2c(OCc3c(F)cccc3F)cccn2c1-c1nc2c(c(C(=O)NCC(C)(C)O)n1)C(C)(C)C(=O)N2 [Example 56, 2-{8-[(2,6-difluorobenzyl)oxy]-2-methylimidazo[1,2-a]pyridin-3-yl}-N-(2-hydroxy-2-methylpropyl)-5,5-dimethyl-6-oxo-6,7-dihydro-5H-pyrrolo[2,3-d]pyrimidine-4-carboxamide]",0.3,1.3
"Cc1nc2c(OCc3c(F)cccc3F)cccn2c1-c1nc(I)c2c(n1)NC(=O)C2(C)C(F)(F)F (racemic) [Example 7, rac-2-{8-[(2,6-Difluorobenzyl)oxy]-2-methylimidazo[1,2-a]pyridin-3-yl}-4-iodo-5-methyl-5-(trifluoromethyl)-5,7-dihydro-6H-pyrrolo[2,3-d]pyrimidin-6-one trifluoroacetate (racemate)]",2,590
"Cc1nc2c(OCc3c(F)cccc3F)cccn2c1-c1nc2c(c(Oc3cn[nH]c3)n1)C(C)(C)C(=O)N2 [Example 44, 2-{8-[(2,6-Difluorobenzyl)oxy]-2-methylimidazo[1,2-a]pyridin-3-yl}-5,5-dimethyl-4-(1H-pyrazol-4-yloxy)-5,7-dihydro-6H-pyrrolo[2,3-d]pyrimidin-6-one]",1,1.5
"COCC(C)(N)CNc1nc(-c2c(C)nc3c(OCc4c(F)ccc(F)c4F)cccn23)nc2c1C(C)(C)C(=O)N2 (racemic) [Example 35, rac-4-[(2-amino-3-methoxy-2-methylpropyl)amino]-5,5-dimethyl-2-{2-methyl-8-[(2,3,6-trifluorobenzyl)oxy]imidazo[1,2-a]pyridin-3-yl}-5,7-dihydro-6H-pyrrolo[2,3-d]pyrimidin-6-one formate]",1,35
"COCC(C)(N)CNc1nc(-c2c(C)nc3c(OCc4c(F)cccc4F)cccn23)nc2c1C(C)(C)C(=O)N2 (single isomer, unassigned; ent-4) [Example 45, ent-4-[(2-Amino-3-methoxy-2-methylpropyl)amino]-2-{8-[(2,6-difluorobenzyl)oxy]-2-methylimidazo[1,2-a]pyridin-3-yl}-5,5-dimethyl-5,7-dihydro-6H-pyrrolo[2,3-d]pyrimidin-6-one (Enantiomer A)]",1,9.8
"Cc1nc2c(OCc3c(F)cccc3F)cccn2c1-c1nc2c(c(N3C[C@H]4C[C@@]4(N)C3)n1)C(C)(C)C(=O)N2 (relative stereo) [Example 32, rac-rel-4-[(1R,5S)-1-amino-3-azabicyclo[3.1.0]hex-3-yl]-2-{8-[(2,6-difluorobenzyl)oxy]-2-methylimidazo[1,2-a]pyridin-3-yl}-5,5-dimethyl-5,7-dihydro-6H-pyrrolo[2,3-d]pyrimidin-6-one formate]",1,11
"Cc1nc2c(OCc3c(F)cccc3F)cccn2c1-c1nc(NCC(N)C(F)(F)F)c2c(n1)NC(=O)C2(C)C (racemic) [Example 25, rac-4-[(2-amino-3,3,3-trifluoropropyl)amino]-2-{8-[(2,6-difluorobenzyl)oxy]-2-methylimidazo[1,2-a]pyridin-3-yl}-5,5-dimethyl-5,7-dihydro-6H-pyrrolo[2,3-d]pyrimidin-6-one]",3,15
"Cc1nc2c(OCc3c(F)cccc3F)cccn2c1-c1nc(NCC(C)(N)C(F)F)c2c(n1)NC(=O)C2(C)C (racemic) [Example 39, rac-4-[(2-amino-3,3-difluoro-2-methylpropyl)amino]-2-{8-[(2,6-difluorobenzyl)oxy]-2-methylimidazo[1,2-a]pyridin-3-yl}-5,5-dimethyl-5,7-dihydro-6H-pyrrolo[2,3-d]pyrimidin-6-one]",0.3,9.6
"Cc1nc2c(OCc3c(F)cccc3F)cccn2c1-c1nc(NCC(N)(CF)CF)c2c(n1)NC(=O)C2(C)C [Example 33, 4-{[2-amino-3-fluoro-2-(fluoromethyl)propyl]amino}-2-{8-[(2,6-difluorobenzyl)oxy]-2-methylimidazo[1,2-a]pyridin-3-yl}-5,5-dimethyl-5,7-dihydro-6H-pyrrolo[2,3-d]pyrimidin-6-one]",1,9.7
"Cc1nc2c(OCc3c(F)ccc(F)c3F)cccn2c1-c1nc2c(c(-c3cc[nH]n3)n1)C(C)(C)C(=O)N2 [Example 74, 5,5-Dimethyl-2-{2-methyl-8-[(2,3,6-trifluorobenzyl)oxy]imidazo[1,2-a]pyridin-3-yl}-4-(1H-pyrazol-5-yl)-5,7-dihydro-6H-pyrrolo[2,3-d]pyrimidin-6-one]",1,30
"Cc1nc2c(OCc3c(F)cccc3F)cccn2c1-c1nc2c(c(NC3CCC(C)(O)CC3)n1)C(C)(C)C(=O)N2 (single isomer, unassigned; diastereomer 1) [Example 28, 2-{8-[(2,6-difluorobenzyl)oxy]-2-methylimidazo[1,2-a]pyridin-3-yl)-4-[(4-hydroxy-4-methylcyclohexyl)amino]-5,5-dimethyl-5,7-dihydro-6H-pyrrolo[2,3-d]pyrimidin-6-one formate (Diastereomer 1)]",0.3,0.3
"Cc1nc2c(OCc3c(F)ccc(F)c3F)cccn2c1-c1nc2c(c(C(=O)NCCC(F)(F)F)n1)C(C)(C)C(=O)N2 [Example 59, 5,5-dimethyl-2-{2-methyl-8-[(2,3,6-trifluorobenzyl)oxy]imidazo[1,2-a]pyridin-3-yl}-6-oxo-N-(3,3,3-trifluoropropyl)-6,7-dihydro-5H-pyrrolo[2,3-d]pyrimidine-4-carboxamide]",0.3,1.7
"Cc1nc2c(OCc3c(F)ccc(F)c3F)cccn2c1-c1nc2c(c(C(=O)N3CCN(C)CC3)n1)C(C)(C)C(=O)N2 [Example 60, 5,5-dimethyl-4-[(4-methylpiperazin-1-yl)carbonyl]-2-{2-methyl-8-[(2,3,6-trifluorobenzyl)oxy]imidazo[1,2-a]pyridin-3-yl}-5,7-dihydro-6H-pyrrolo[2,3-d]pyrimidin-6-one trifluoroacetate]",3,420
